Experimental data published in patent US7470706B2, “Cycloalkyl-substituted 7-amino-4-quinolone-3-carboxylic acid derivatives, process for their preparation and their use as medicaments” (Sanofi-Aventis Deutschland GmbH, priority 2004, dated 2008).

Target: T1, human glycogen phosphorylase a (Homo sapiens, UniProt P06737)
T1 sequence (P06737 1-847): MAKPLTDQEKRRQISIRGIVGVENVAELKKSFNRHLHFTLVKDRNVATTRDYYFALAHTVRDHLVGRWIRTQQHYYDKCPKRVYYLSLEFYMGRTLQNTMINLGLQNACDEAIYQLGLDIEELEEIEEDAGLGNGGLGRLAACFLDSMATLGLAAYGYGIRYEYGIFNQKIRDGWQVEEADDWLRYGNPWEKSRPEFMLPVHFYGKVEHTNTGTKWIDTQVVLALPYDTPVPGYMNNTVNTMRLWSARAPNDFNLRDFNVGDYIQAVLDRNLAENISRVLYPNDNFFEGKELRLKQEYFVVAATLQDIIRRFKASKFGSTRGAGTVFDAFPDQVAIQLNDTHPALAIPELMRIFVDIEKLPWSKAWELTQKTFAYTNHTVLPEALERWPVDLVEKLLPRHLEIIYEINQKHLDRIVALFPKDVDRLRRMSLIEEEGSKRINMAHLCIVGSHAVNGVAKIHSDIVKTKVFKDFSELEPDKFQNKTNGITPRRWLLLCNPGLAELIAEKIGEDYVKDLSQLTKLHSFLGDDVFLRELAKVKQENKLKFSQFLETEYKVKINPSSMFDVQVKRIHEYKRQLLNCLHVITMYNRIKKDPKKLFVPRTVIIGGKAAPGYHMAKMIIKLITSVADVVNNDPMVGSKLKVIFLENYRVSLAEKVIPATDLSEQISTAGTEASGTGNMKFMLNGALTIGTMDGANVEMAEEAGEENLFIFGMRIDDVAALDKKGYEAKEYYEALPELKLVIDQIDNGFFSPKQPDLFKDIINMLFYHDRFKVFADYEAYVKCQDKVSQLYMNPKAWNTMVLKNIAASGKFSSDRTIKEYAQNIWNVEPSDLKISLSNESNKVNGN
Experiment: Glycogen phosphorylase a activity assay
Assay type: biochemical
Settings: 10 μM test substance; reverse direction (glycogen synthesis from glucose 1-phosphate), inorganic phosphate liberation
Procedure: Glycogen Phosphorylase a Activity Assay
The effect of compounds on the activity of the active form of glycogen phosphorylase (GPa) was measured in the reverse direction by following the synthesis of glycogen from glucose 1-phosphate by determining the liberation of inorganic phosphate. All the reactions were carried out as duplicate determinations in microtiter plates with 96 wells (Half Area Plates, Costar No 3696), measuring the change in absorption owing to the formation of the reaction product at the wavelength specified hereinafter in a Multiskan Ascent Elisa Reader (Lab Systems, Finland).
In order to measure the GPa enzymic activity in the reverse direction, the general method of Engers et al. (Engers H D, Shechosky S, Madsen N B, Can J Biochem 1970 July; 48(7):746-754) was used to measure the conversion of glucose 1-phosphate into glycogen and inorganic phosphate, with the following modifications: human glycogen phosphorylase a (for example with 0.76 mg of protein/ml (Aventis Pharma Deutschland GmbH), dissolved in buffer solution E (25 mM β-glycerophosphate, pH 7.0, 1 mM EDTA and 1 mM dithiothreitol) was diluted with buffer T (50 mM Hepes, pH 7.0, 100 mM KCl, 2.5 mM EDTA, 2.5 mM MgCl2.6H2O) and addition of 5 mg/ml glycogen to a concentration of 10 μg of protein/ml. […] After incubation at 45° C. for 60 minutes, the absorption at 820 nm was measured. […]

inhibition at 10 µM [%] | Structure (SMILES)
35 | C#CC1(Nc2cc3c(=O)c(C(=O)O)cn(CC)c3nc2C)CCCCC1 [Example 3, 1-Ethyl-6-(1-ethynylcyclohexylamino)-7-methyl-4-oxo-1,4-dihydro[1,8]naphthyridine-3-carboxylic acid]
42 | C#CC1(Nc2cc3c(=O)c(C(=O)OCC)cn(CC)c3nc2C)CCCCC1 [Example 2]
